Several values for one entry are separate records, joined by “and”; a condition that tells them apart may be missing. Equal entries are not always repeated. Marks after values point to notes of the source that are not given here.
Tests used:
rats = assay: Acute normobaric hypoxic hypoxia with hypercapnia (ANHHH), life duration; assay type: in vivo; conditions: preventive administration; SI-86 and SI-108 10 mg/kg iv, mexydol 100 mg/kg ip
Method: The study of antihypoxic activity of 10 original derivatives of 3,2′-spiro-pyrrolo-2-oxindole was conducted on models of acute normobaric hypoxic hypoxia with hypercapnia (ANHHH) and acute asphyxia. ANHHH was modeled by means of rat arrangement into isolated pressure compartments (0.001 m^3). The observation conducted until the death of the animals. The antihypoxic activity was assessed by life duration (in minutes) in relation to the control taken as 100%, by the formula AA=tt/tk×100%, wherein AA—antihypoxic activity (%), tt—life duration of test animals, tc—life duration of control animals.
(§1) The preliminary screening of test substances was performed on ANHHH model. All derivatives were administered in the same dose of 10 mg/kg […] (iv) 1 hour prior to pathological state modeling. […] The effectiveness of a leader compound was evaluated at doses 5; 10 and 15 mg/kg iv. Mexydol was chosen as a reference drug having antihypoxic action in combination with antioxidant and membrane protective activity, which is successfully used in patients with CVA and IM. Mexydol was administered intraperitoneally (ip) at a dose of 100 mg/kg according to similar scheme.

[1] = system: rat heart bioelectrical activity; assay: Acute asphyxia, duration of heart bioelectrical activity; assay type: in vivo, rats
Method: Acute asphyxia was modeled in rats anesthetized with propofol (60 mg/kg) intraperitoneally (ip) by complete clamping the trachea at electrocardiogram (EGC) registration. The antihypoxic effect was evaluated by duration of heart bioelectric activity (HBA). This model allows to estimate the heart sensitivity to hypoxia. An isoelectric ECG line for 1 minute considered as HBA termination, the pint of HBA termination corresponded to the last QRS complex on the ECG. The calculation of […] activity was performed by the above formula considering a point of last QRS complex registration as a lifetime.
as §1

[2] = system: ischemic brain damage in rats; conditions: 60 mg/kg and 30 mg/kg, 3 and 7 hours after reperfusion; cited from earlier work
liver and pancrea cells = assay: Pro/antiapoptosis properties, electrophoresis of DNA fragments; assay type: in vivo; conditions: intact male Wistar rats; 50 mg/kg
Method: The assessment of pro/antiapoptotosis properties of substances was carried in intact male rats of Wistar line. The test substance were administered for 2 weeks by means of a probe in aqueous suspension containing Tween-80 at a dose of 50 mg/kg of body weight. The animals were euthanized by cervical vertebrae translocation 24 hours after the experiment. The identification of apoptosis of liver and pancrea cells was performed using electrophoretic method. […] Cell necrosis conditioned the “smeared” nature of DNA migration zone. The luminescence band of intact DNA was in the starting area.
The expression of apoptosis manifestations was assessed by registration of DNA fragments via electrophoresis.

[3] = system: rats with intracerebral hemorrhage; assay: Conditioned response of passive avoidance (CRPA) in rats with intracerebral hemorrhage; assay type: in vivo; conditions: 21st day, n = 15
Method: (§2) Neuroprotective effect of 3,2′-spiro-pyrrolo-2-oxindole derivative (SI-86 compound) was studied on IUD model of moderate severity modeled under propofol anesthesia (60 mg/kg intraperitoneally (ip)) by autoblood administration into the brain internal capsule (stereotactic coordinates of the projection: H=7.0 mm, L=3.0 mm, A=1.5 mm from bregma) ([…]) (Method for reproduction of intracerebral hemorrhage in rats/O. K. Yarosh, S. V. Kyrychenko, S. P. Halimonchyk [et al.]//Circulation and hemostasis.-2005.-No. 1.-P. 77-81). The chosen model allows to reproduce clinical pattern of […] and is adequate for clinical study of potential neuroprotective agents.
(§3) As comparators the following drugs were used: mexydol (“Mexydol” UC Pharmasoft, Russia), 100 mg/kg; citicoline (“Somazina” Ferrer International, SA, Spain), 250 mg/kg; aktovegin (“Aktovegin”, Nycomed, Austria), 16 mg/kg pyracetam (“Pyracetam” Darnitsa, Ukraine), 400 mg/kg. According to the latest clinical guidelines regarding the treatment of patients with CVA approved by the Ministry of Health of Ukraine (Order No. 602 dated 3 Aug. 2012), all these drugs are allowed to be included into schemes for intensive patients therapy with CVA as neuroprotective agents. They were used at recommended doses for preclinical studies (McGrow C. P. Experimental Cerebral Infarction Effects of Pentobarbital in Mongolian Gerbils/C. P. McGrow//Arch. Neurol.-1977.-Vol. 34, No. 6.-P. 334-336). Experimental therapy of acute cerebral ischemia with SI-86 compound and comparator started 1 hour after IUD once a day for 21 days. The SI-86 derivative was investigated in conventionally effective dose of 10 mg/kg […] (iv)-dose that according to the results of our previous study provides maximum antihypoxic activity of SI-86 compound. Reference drugs were injected intraperitoneally (ip). Rats of control pathology group were injected by autoblood and as therapy 0.9% NaCI solution was administered calculated for 2 ml/kg […].
(§4) Evaluation of the ability of animals to learn and memorize of aversive stimulus was examined in the test of conditioned response of passive avoidance (CRPA). The technique is based on innate rat instinct to limited shadowy space. The study in rats was conducted in two-compartment unit consisted of two sections—light and dark. An animal was arranged into light compartment, fixing latency time for entering into the dark compartment, wherein rat received current irritation and ran in the light compartment. CRPA retention was tested every other day under latency time change of rat entering into the dark compartment. Also the number of animals was noted not fully entered the dark chamber. Cerebroprotective efficiency criteria of studied compounds were also animal death term (days) and their mortality rate (in %).

[4] = system: rats with intracerebral hemorrhage; assay: Lethality of rats with intracerebral hemorrhage of average severity; assay type: in vivo
Method: The chosen model allows to reproduce clinical pattern of […] and is adequate for clinical study of potential neuroprotective agents.
As comparators the following drugs were used: mexydol (“Mexydol” UC Pharmasoft, Russia), 100 mg/kg; citicoline (“Somazina” Ferrer International, SA, Spain), 250 mg/kg; aktovegin (“Aktovegin”, Nycomed, Austria), 16 mg/kg pyracetam (“Pyracetam” Darnitsa, Ukraine), 400 mg/kg. According to the latest clinical guidelines regarding the treatment of patients with CVA approved by the Ministry of Health of Ukraine (Order No. 602 dated 3 Aug. 2012), all these drugs are allowed to be included into schemes for intensive patients therapy with CVA as neuroprotective agents. They were used at recommended doses for preclinical studies (McGrow C. P. Experimental Cerebral Infarction Effects of Pentobarbital in Mongolian Gerbils/C. P. McGrow//Arch. Neurol.-1977.-Vol. 34, No. 6.-P. 334-336). Experimental therapy of acute cerebral ischemia with SI-86 compound and comparator started 1 hour after IUD once a day for 21 days. […] Reference drugs were injected intraperitoneally (ip). Rats of control pathology group were injected by autoblood and as therapy 0.9% NaCI solution was administered calculated for 2 ml/kg iv.
Pseudo-operated rats were exposed to all interventions (anesthesia, craniotomy) excluding autoblood administration that leveled traumatic impact of experimental conditions.
as §4
Quantitative data were processed using statistical StatPlus 2009 processing. The statistical significance of differences was assessed by Fisher's angular transformation (lethality outcome), also parametric t Student criterion were used in case of normal distribution of variation series, nonparametric W White criterion—in its absence.

[5] = system: rats with intracerebral hemorrhage; assay: Neurological deficit (C. P. McGrow stroke-index scale) in rats with intracerebral hemorrhage; assay type: in vivo; conditions: n = 15
Method: as §2, §3
Neurological deficit in animals with acute CVA respectively in acute (4th day) and recovery (21 st day) periods was measured on C. P. McGrow stroke-index scale. The state severity was determined by amount of relevant points: to 3 points-mild, 3 to 7 points-average, above 7 points-severe degree. Pareses, paralyses of limbs, tremors, circus movement, ptoses, lateral positions, ability of rats to be maintained at the core of 15 cm diameter, rotating at the rate of 3 rpm were noted. The animals were tested daily by displaying the amount of points:
one-sided semi-ptosis—0.5 points; one-sided ptosis—1 point; tremor—0.5 points; circus movements—0.5 points; pareses of limbs (for each limb)—1 point; paralyses of limbs (for each limb)—2 points; lateral position—3 points; disability to maintain on rotating rod during 4 minutes—3 points.

[6] = 12 h, SI-86 10 mg/kg iv, mexydol 100, citocoline 250, actovegin 16, pyracetam 400 mg/kg

SMILES: CCSCC[C@@H]1N[C@@]2(C(=O)N(Cc3ccc(Cl)cc3)c3ccccc32)[C@@H]2C(=O)N(c3ccc(C)cc3)C(=O)[C@H]12 [SI-108, 1-(4-Chloro-benzyl)-3′-[2-(ethylthio)ethyl]-5′-(4-methylphenyl)-3a′,6a′-dihydro-2′H-spiro[indole-3,1′-pyrrolo[3,4-c]pyrrol]-2,4′,6′(1H,3′H,5′H)-trione]
- increase of life duration in rats in relation to control (rats): 28.6%
- Antihypoxic activity ([1]; 10 mg/kg iv): −18.4%
- Duration of heart bioelectrical activity ([1]; 10 mg/kg iv): 9.5 ± 1.1 min

SMILES: Cc1c(Cl)cccc1S(=O)(=O)Nc1nc(CC(=O)N2CCN(C)CC2)cs1.Cl [BVT-2733, 3-chloro-2-methyl-N-(4-(2-(4-methylpiperazin-1-yl)-2-oxoethyl)thiazol-2-yl)benzenesulfonamide hydrochloride]
- amount of ischemic brain damage [2]: reduced the amount of ischemic brain damage

SMILES: CCSCC[C@@H]1N[C@@]2(C(=O)Nc3ccccc32)[C@@H]2C(=O)N(c3ccc(C)cc3)C(=O)[C@H]12 [SI-34, 5′-(4-Methylphenyl)-3′-[2-(ethylthio)ethyl]-3a′,6a′-dihydro-2′H-spiro[indole-3, 1′-pyrrolo[3,4-c]pyrrol]-2,4′,6′(1H,3H′,5H′)-trione]
- level of apoptosis (liver and pancrea cells): closed to that of control group

SMILES: CCc1nc(C)ccc1O.O=C(O)CCC(=O)O [mexydol]
- increase of life duration in rats in relation to control (rats): 80.2%
- Latent period for entrance into dark compartment, prior study ([3]; SI-86 10 mg/kg iv, mexydol 100, citocoline 250, actovegin 16, pyracetam 400 mg/kg ip): 11.30 ± 0.47°*^#$ s
- Latent period for entrance into dark compartment, 24 hours after study ([3]; same doses): 106.80 ± 2.77°*^#•$ s
- Lethality, % [4, 6]: 0/0%*^#
- Lethality, abs. [4, 6]: 0/0%*^#
- Lethality, abs. ([4]; 24 h, same doses): 0/0%*^#
- cerebroprotective protection ([4]; 24 h observation, SI-86 10, mexydol 100, citicoline 250 mg/kg): 100%
- Lethality, % ([4]; 48 h, same doses): 7.9%
- Lethality, abs. ([4]; 48 h, same doses): 3
- Lethality, % ([4]; 72 h, same doses): 10.5%
- Lethality, abs. ([4]; 72 h, same doses): 4
- Lethality, % ([4]; 96 h, same doses): 13.2%
- Lethality, abs. ([4]; 96 h, same doses): 5
- reduction of mortality in rats at the end of the observation period relative to control ([4]; within 4 days of therapy, same doses): 17.2%
- Antihypoxic activity ([1]; 100 mg/kg ip): +50.9%
- Duration of heart bioelectrical activity ([1]; 100 mg/kg ip): 17.5 ± 0.5 min
- neurological deficit, average point under C. P. McGrow scale ([5]; day 4, SI-86 10 mg/kg iv, mexydol 100, citocoline 250, actovegin 16, pyracetam 400 mg/kg ip): 4.30 ± 0.25°*^#•$ points
- neurological deficit, average point under C. P. McGrow scale ([5]; day 21, same doses): 3.8 points and 3.80 ± 0.21°*^#•$ points

Source: patent US20160297828A1, “SPIROCYCLIC COMPOUNDS CONTAINING SPIRO[INDOLYL-3,1'-PYRROLO[3,4-C]PYRROLE] CORE AND SULPHUR-CONTAINING AMINO ACID RESIDUES” (priority 2013, published 2016)
